Test system: participants currently receiving high-intensity statin therapy
Assay: ROSE2 Phase 2b clinical trial: LDL-C and other lipid efficacy endpoints
Assay type: in vivo, human
Experimental: The primary objective of this study is to evaluate the effect of obicetrapib 10 mg+ezetimibe 10 mg combination therapy compared with placebo, when used as an adjunct to high-intensity statin therapy, on LDL-C at Day 84.
The secondary objectives of this study include the following, in hierarchical order: • To evaluate the effect of obicetrapib 10 mg monotherapy compared with placebo, when used as an adjunct to high-intensity statin therapy, on LDL-C at Day 84; • To evaluate the effect of obicetrapib 10 mg+ezetimibe 10 mg combination therapy compared with placebo, when used as an adjunct to high-intensity statin therapy, on ApoB at Day 84; and • To evaluate the effect of obicetrapib 10 mg monotherapy compared with placebo, when used as an adjunct to high-intensity statin therapy, on ApoB at Day 84.
This study will be a placebo-controlled, double-blind, randomized, Phase 2 study to evaluate the efficacy, safety, and tolerability of obicetrapib 10 mg, both in combination with ezetimibe 10 mg and as monotherapy, as an adjunct to high-intensity statin therapy. This study will take place at approximately 20 sites in the United States.
Up to 2 weeks after the Screening Visit, participants will return to the site on Day 1 (Visit 2) and confirm study eligibility before being randomized and beginning treatment. Approximately 114 eligible participants (38 participants per treatment group) will be randomized in a 1:1:1 ratio to 1 of the following treatment groups: • Combination therapy: Obicetrapib 10 mg+ezetimibe 10 mg (administered as one 10 mg obicetrapib tablet and one 10 mg ezetimibe capsule); • Obicetrapib monotherapy: Obicetrapib 10 mg (administered as one 10 mg obicetrapib tablet and 1 placebo capsule); or. • Placebo (administered as 1 placebo tablet and 1 placebo capsule).
During the 12-week Treatment Period, the assigned study drugs will be administered by the participants orally with water, once daily on Day 1 to Day 84 at approximately the same time each morning. Participants will return to the site on Day 28 (±2 days), Day 84 (±2 days), and Day 112 (±2 days) for efficacy, safety, and pharmacokinetic (PK) assessments. Participants, Investigators, the Clinical Research Organization (CRO), and the Sponsor will be blinded to all lipid results from Day 1 (Visit 2) for the first participant until all enrolled participants complete the Day 84 (End of Treatment) visit or are withdrawn from the study, in order to protect blinding to treatment assignment.
The primary efficacy endpoint is the percent change from Day 1 to Day 84 in LDL-C for the obicetrapib 10 mg+ezetimibe 10 mg combination treatment group compared with the placebo group.
The secondary efficacy endpoints include the following, in hierarchical order: • Percent change from Day 1 to Day 84 in LDL-C for the obicetrapib 10 mg monotherapy. • treatment group compared with the placebo group; • Percent change from Day 1 to Day 84 in ApoB for the obicetrapib 10 mg+ezetimibe 10 mg • combination treatment group compared with the placebo group; and • Percent change from Day 1 to Day 84 in ApoB for the obicetrapib 10 mg monotherapy treatment group compared with the placebo group.
The exploratory efficacy endpoints include the following: • Percent change from Day 1 to Day 84 in non-HDL-C, VLDL-C, HDL-C, TG, ApoE, Lp(a), and HDL-ApoE for the obicetrapib 10 mg+ezetimibe 10 mg combination treatment group compared with the placebo group and for the obicetrapib 10 mg monotherapy treatment group compared with the placebo group; and • Proportion of participants at Day 84 that achieve LDL-C <2.6 mmol/L (<100 mg/dL), LDL-C <1.8 mmol/L (<70 mg/dL), and LDL-C <1.3 mmol/L (<50 mg/dL) for the obicetrapib 10 mg+ezetimibe 10 mg combination treatment group compared with the placebo group and for the obicetrapib 10 mg monotherapy treatment group compared with the placebo group. […]

[1] = Exploratory Population, 10 mg each drug
[2] = mITT Population, 10 mg each drug

CCOC(=O)N1c2ccc(C(F)(F)F)cc2[C@@H](N(Cc2cc(C(F)(F)F)cc(C(F)(F)F)c2)c2ncc(OCCCC(=O)O)cn2)C[C@H]1CC [obicetrapib, {4-[(2-{[3,5-bis(trifluoromethyl)benzyl] [(2R,4S)-1-(ethoxycarbonyl)-2-ethyl-6-(trifluoromethyl)-1,2,3,4-tetrahydroquinolin-4-yl]amino}pyrimidin-5-yl)oxy]butanoic acid}]
ApoB Change from Baseline to Day 28, Maximum [1]: -1 mg/dL
ApoB Change from Baseline to Day 28, Median [1]: -23.0 mg/dL
ApoB Change from Baseline to Day 28, Minimum [1]: -55 mg/dL
ApoB Change from Baseline to Day 84, Maximum [1]: 19 mg/dL
ApoB Change from Baseline to Day 84, Minimum [1]: -52 mg/dL
ApoB Percent Change from Baseline to Day 28, Maximum [1]: −3.0%
ApoB Percent Change from Baseline to Day 28, Mean [1]: −26.00%
ApoB Percent Change from Baseline to Day 28, Median [1]: −26.00%
ApoB Percent Change from Baseline to Day 28, Minimum [1]: −47.4%
ApoB Percent Change from Baseline to Day 84, Maximum [1]: 27.1%
ApoB Percent Change from Baseline to Day 84, Minimum [1]: −44.8%
LDL-C Change from Baseline to Day 28, Maximum [1]: -11 mg/dL
LDL-C Change from Baseline to Day 28, Mean [1]: -43.0 mg/dL
LDL-C Change from Baseline to Day 28, Median [1]: -45.0 mg/dL
LDL-C Change from Baseline to Day 28, Minimum [1]: -87 mg/dL
LDL-C Change from Baseline to Day 84, Maximum [1]: 24 mg/dL
LDL-C Change from Baseline to Day 84, Minimum [1]: -112 mg/dL
LDL-C Percent Change from Baseline to Day 28, Maximum [1]: −10.4%
LDL-C Percent Change from Baseline to Day 28, Minimum [1]: −82.0%
LDL-C Percent Change from Baseline to Day 84, Maximum [1]: 22.6%
LDL-C Percent Change from Baseline to Day 84, Minimum [1]: −78.4%
Lp(a) Change from Baseline to Day 84, Maximum [1]: 3.0 nmol/L
ApoB at Day 28, Maximum [1]: 110 mg/dL
ApoB at Day 28, Mean [1]: 65.4 mg/dL
ApoB at Day 28, Median [1]: 64.5 mg/dL
ApoB at Day 28, Minimum [1]: 32 mg/dL
LDL-C at Day 28, Maximum [1]: 136 mg/dL
LDL-C at Day 28, Mean [1]: 57.6 mg/dL
LDL-C at Day 28, Median [1]: 51.5 mg/dL
LDL-C at Day 28, Minimum [1]: 16 mg/dL
ApoB at Day 84, Maximum [1]: 123 mg/dL
ApoB at Day 84, Mean [1]: 69.1 mg/dL
ApoB at Day 84, Median [1]: 65.0 mg/dL
ApoB at Day 84, Minimum [1]: 30 mg/dL
LDL-C at Day 84, Maximum [1]: 148 mg/dL
LDL-C at Day 84, Mean [1]: 60.7 mg/dL
LDL-C at Day 84, Median [1]: 55.5 mg/dL
LDL-C at Day 84, Minimum [1]: 21 mg/dL
Lp(a) at Day 84, Maximum [1]: 327.7 nmol/L
Lp(a) at Day 84, Mean [1]: 74.75 nmol/L
Lp(a) at Day 84, Median [1]: 20.85 nmol/L
Lp(a) at Day 84, Minimum [1]: 2.8 nmol/L
median reduction in LDL-C (ROSE2, obicetrapib 10 mg with or without ezetimibe 10 mg, adjunct to high-intensity statin): 39%
ApoB Change from Baseline to Day 28, Maximum [2]: 50 mg/dL
ApoB Change from Baseline to Day 28, Median [2]: -20.0 mg/dL
ApoB Change from Baseline to Day 28, Minimum [2]: -85 mg/dL
ApoB Change from Baseline to Day 84, Maximum [2]: 67 mg/dL
ApoB Change from Baseline to Day 84, Minimum [2]: -52 mg/dL
ApoB Percent Change from Baseline to Day 28, Maximum [2]: 64.9%
ApoB Percent Change from Baseline to Day 28, Minimum [2]: −62.0%
ApoB Percent Change from Baseline to Day 84, Maximum [2]: 100.0%
ApoB Percent Change from Baseline to Day 84, Mean [2]: −9.50%
ApoB Percent Change from Baseline to Day 84, Minimum [2]: −44.8%
LDL-C Change from Baseline to Day 28, Maximum [2]: 64 mg/dL
LDL-C Change from Baseline to Day 28, Median [2]: -35.0 mg/dL
LDL-C Change from Baseline to Day 28, Minimum [2]: -121 mg/dL
LDL-C Change from Baseline to Day 84, Maximum [2]: 98 mg/dL
LDL-C Change from Baseline to Day 84, Minimum [2]: -112 mg/dL
LDL-C Percent Change from Baseline to Day 28, Maximum [2]: 70.3%
LDL-C Percent Change from Baseline to Day 28, Minimum [2]: −82.0%
LDL-C Percent Change from Baseline to Day 84, Maximum [2]: 161.5%
LDL-C Percent Change from Baseline to Day 84, Minimum [2]: −78.4%
Lp(a) Change from Baseline to Day 84, Maximum [2]: 22.0 nmol/L
Lp(a) Change from Baseline to Day 84, Median [2]: -4.50 nmol/L
ApoB at Day 28, Maximum [2]: 140 mg/dL
ApoB at Day 28, Mean [2]: 73.4 mg/dL
ApoB at Day 28, Median [2]: 66.0 mg/dL
ApoB at Day 28, Minimum [2]: 32 mg/dL
LDL-C at Day 28, Maximum [2]: 169 mg/dL
LDL-C at Day 28, Mean [2]: 70.3 mg/dL
LDL-C at Day 28, Median [2]: 56.0 mg/dL
LDL-C at Day 28, Minimum [2]: 16 mg/dL
ApoB at Day 84, Maximum [2]: 147 mg/dL
ApoB at Day 84, Mean [2]: 82.4 mg/dL
ApoB at Day 84, Median [2]: 72.0 mg/dL
ApoB at Day 84, Minimum [2]: 30 mg/dL
LDL-C at Day 84, Maximum [2]: 196 mg/dL
LDL-C at Day 84, Mean [2]: 82.7 mg/dL
LDL-C at Day 84, Median [2]: 65.0 mg/dL
LDL-C at Day 84, Minimum [2]: 21 mg/dL
Lp(a) at Day 84, Maximum [2]: 327.7 nmol/L
Lp(a) at Day 84, Mean [2]: 77.96 nmol/L
Lp(a) at Day 84, Median [2]: 26.25 nmol/L
Lp(a) at Day 84, Minimum [2]: 2.8 nmol/L
